Results taken from US20230382920A1, “SHMT Inhibitors” (The Trustees of Princeton University, priority 2020, published 2023).

Experiments:
HCT116 [1] = assay: HCT116 formate rescue assay (with sodium formate 1 mM); format: cell-based; details: HCT116 growth
Protocol: (§1) Example 5. HCT116 Growth Inhibition and Formate Rescue Assays
(§2) 3,000 Cells were plated in each well of a 96-well plate with 80 μL of DMEM media supplemented with 10% dFBS, and incubated for 24 hours. Drugs with or without sodium formate (1 mM) were then added to each well to a final volume of 100 μL. Cell growth was measured as fluorescence intensity by resazurin after four days. In short, resazurin was added to each well to a final concentration of 10 μg·mL^−1. After incubation for one hour, fluorescence was measured by a Synergy HT plate reader (BioTek Instruments).

[2] = Mouse liver microsome assay (metabolic stability); format: in vitro ADME; details: mouse liver microsomes; for half-life at 2 µM: in vitro half-life; for microsomal CLint at 2 µM: in vitro intrinsic clearance, read-out: Relative Clint
Protocol: Example 6. Mouse Liver Microsome Assay
Metabolic stability of several compounds in mouse liver microsomes was tested. Briefly, a master solution was prepared according to Table 31.
Two separate experiments were performed: an experiment with cofactors and an experiment without cofactors. In the experiment with cofactors 40 μL of 10 mM NADPH and 40 μL of 20 mM UDPGA were added to the incubations. The final concentrations of microsomes, NADPH and UDPGA were 0.5 mg/mL, 1 mM and 2 mM, respectively. In the experiment without cofactors 10 μL of 20 mg/mL liver microsomes and 80 μL of ultra-pure H2O were added to the incubations. The final concentration of microsomes was 0.5 mg/mL. The mixture was pre-warmed at 37° C. for 5 minutes.
The reaction was started with the addition of 4 μL of 200 μM control compound or test compound solutions. Verapamil was used as positive control in this study. The final concentration of test compound was 2 μM and the final concentration of control compound was 1 μM. The incubation solution was incubated in water bath at 37° C.
Aliquots of 50 μL were taken from the reaction solution at 0.5, 5, 15, 30, 45 and 60 minutes. The reaction was stopped by the addition of five volumes of cold acetonitrile with IS (100 nM alprazolam, 200 nM caffeine and 100 nM tolbutamide). Samples were centrifuged at 3,220 g for 40 minutes. Aliquot of 100 μL of the supernatant was mixed with 100 μL of ultra-pure H2O and then subject to LC-MS/MS analysis.
All calculations were carried out using Microsoft Excel. Peak areas were determined from extracted ion chromatograms. The slope value, k, was determined by linear regression of the natural logarithm of the remaining percentage of the parent drug versus incubation time curve. The in vitro half-life (in vitro t½) was determined from the slope value:
Conversion of the in vitro t1/2(min) into the in vitro intrinsic clearance (in vitro CLint, in μL/min/mg protein) was done using the following equation (mean of duplicate determinations): […]

HCT116 [3] = assay: HCT116 growth inhibition assay; format: cell-based; details: without formate
Protocol: as §1, §2

IC50 (HCT116 [1]; Homo sapiens, HCT-116, 96 h) [µM] | half-life at 2 µM [2] [min] | microsomal CLint at 2 µM [2] [µL/min/mg] | IC50 (HCT116 [3]) | IC50 (HCT116 [1]) [µM] | SMILES
> 5 | 10 to 20 | ≤ 70 | C″ | – | Cc1n[nH]c2c1C(c1cc(C#C[C@@H]3C[C@H]3CO)cc(CO)c1)(C(C)C)C(C#N)=C(N)O2 (some centres unmarked) [KDG-0136]
> 5 | < 5 | > 250 | C″ | – | Cc1n[nH]c2c1C(c1cc(C#C[C@H]3C[C@@H](C(C)(C)O)C3)cc(C(C)(C)O)c1)(C(C)C)C(C#N)=C(N)O2 (some centres unmarked) [KDG-0261-100]
– | < 5 | – | C″ | – | Cc1n[nH]c2c1C(c1cc(C#C[C@H]3C[C@H](COC(N)=O)C3)cc(C(C)(C)O)c1)(C(C)C)C(C#N)=C(N)O2 (some centres unmarked) [KDG-0262]
– | 5 to 10 | – | C″ | – | Cc1n[nH]c2c1C(c1cc(C#C[C@H]3C[C@H](C(=O)N(C)C)C3)cc(CO)c1)(C(C)C)C(C#N)=C(N)O2 (some centres unmarked) [KDG-0265]
– | < 5 | – | B″ | – | Cc1n[nH]c2c1C(c1cc(C#C[C@H]3CC[C@@](C)(O)CC3)cc(CO)c1)(C(C)C)C(C#N)=C(N)O2 (some centres unmarked) [KDG-0270]
– | < 5 | – | B″ | – | Cc1n[nH]c2c1C(c1cc(C#CC3CCOCC3)cc(CO)c1)(C(C)C)C(C#N)=C(N)O2 (centres unmarked) [KDG-0273]
> 5 | < 5 | > 250 | B″ | – | Cc1n[nH]c2c1C(c1cc(C#CC3CCCN3C(=O)OC(C)(C)C)cc(CO)c1)(C(C)C)C(C#N)=C(N)O2 (centres unmarked) [KDG-0280]
< 0.1 | 5 to 10 | 100 to 250 | A″ | – | Cc1n[nH]c2c1C(c1cc(C#CC3CCN(C(=O)OC(C)(C)C)CC3)cc(CO)c1)(C(C)C)C(C#N)=C(N)O2 (centres unmarked) [KDG-0289]
< 0.1 | 5 to 10 | 100 to 250 | C″ | – | Cc1n[nH]c2c1C(c1cc(C#CC3(C)CCN(C(=O)OC(C)(C)C)CC3)cc(CO)c1)(C(C)C)C(C#N)=C(N)O2 (centres unmarked) [KDG-0296]
> 5 | 5 to 10 | 100 to 250 | B″ | – | Cc1n[nH]c2c1C(c1cc(C#CC3(F)CCN(C(=O)OC(C)(C)C)CC3)cc(CO)c1)(C(C)C)C(C#N)=C(N)O2 (centres unmarked) [KDG-0297]
> 5 | ≥ 20 | ≤ 70 | A″ | – | Cc1n[nH]c2c1[C@](c1cc(C#CC3(C(F)(F)F)CN(C(=O)OC(C)(C)C)C3)cc(CO)c1)(C(C)C)C(C#N)=C(N)O2 [KDG-0301]
> 5 | ≥ 20 | ≤ 70 | B″ | – | COC(=O)N1CC(F)(C#Cc2cc(CO)cc([C@@]3(C(C)C)C(C#N)=C(N)Oc4[nH]nc(C)c43)c2)C1 [KDG-0313]
< 0.1 | < 5 | > 250 | A″ | – | Cc1n[nH]c2c1C(c1cc(C#C[C@H]3CC[C@@H](NC(=O)OC(C)(C)C)CC3)cc(CO)c1)(C(C)C)C(C#N)=C(N)O2 (some centres unmarked) [KDG-0321]
– | 5 to 10 | 100 to 250 | A″ | – | Cc1n[nH]c2c1C(c1cc(C#CC3CN(C(=O)OC(C)(C)C)C3)cc(CF)c1)(C(C)C)C(C#N)=C(N)O2 (centres unmarked) [KDG-0345]
– | – | – | A″ | > 5 | Cc1n[nH]c2c1C(c1cc(C#C[C@H]3C[C@@H](NC(=O)OC(C)(C)C)C3)cc(CO)c1)(C(C)C)C(C#N)=C(N)O2 (stereo partly drawn) [KDG-0388-0pk2, tert-butyl N-[(1s,3s)-3-(2-[3-[(4R)-6-amino-5-cyano-4-isopropyl-3-methyl-1H-pyrano[2,3-c]pyrazol-4-yl]-5-(hydroxymethyl)phenyl]ethynyl)cyclobutyl]carbamate]
< 0.1 | – | – | D″ | – | Cc1n[nH]c2c1[C@](c1cc(C#C[C@H]3C[C@@H](NC(=O)OC(C)(C)C)C3)cc(CO)c1)(C(C)C)C(C#N)=C(N)O2 [KDG-0388-Opk1, tert-butyl N-[(1s,3s)-3-(2-[3-[(4S)-6-amino-5-cyano-4-isopropyl-3-methyl-1H-pyrano[2,3-c]pyrazol-4-yl]-5-(hydroxymethyl)phenyl]ethynyl)cyclobutyl]carbamate]
> 5 | 10 to 20 | 70 to 100 | D″ | – | Cc1n[nH]c2c1C(c1cc(C#CC3CN(C(=O)NC(C)(C)C)C3)cc(CO)c1)(C(C)C)C(C#N)=C(N)O2 (centres unmarked) [KDG-0412]
< 0.1 | 10 to 20 | 70 to 100 | B″ | – | [2H]C([2H])(O)c1cc(C#CC2CN(C(=O)OC(C)(C)C)C2)cc(C2(C(C)C)C(C#N)=C(N)Oc3[nH]nc(C)c32)c1 (centres unmarked) [KDG-0413]
< 0.1 | 10 to 20 | 70 to 100 | A″ | – | Cc1c[nH]c2c1C(c1cc(CO)cc(-c3ccc(C4CN(C(=O)OC(C)(C)C)C4)cc3)c1)(C(C)C)C(C#N)=C(N)O2 (centres unmarked) [KDG-0453]
< 0.1 | ≥ 20 | ≤ 70 | C″ | – | Cc1nnc(N2CC(C#Cc3cc(CO)cc(C4(C(C)C)C(C#N)=C(N)Oc5[nH]nc(C)c54)c3)C2)o1 (centres unmarked) [KDG-0472]
> 5 | 5 to 10 | 70 to 100 | C″ | – | Cc1nnc(N2CCC(C#Cc3cc(CO)cc(C4(C(C)C)C(C#N)=C(N)Oc5[nH]nc(C)c54)c3)CC2)o1 (centres unmarked) [KDG-0478]
– | < 5 | – | B″ | – | Cc1n[nH]c2c1C(c1cc(C#C[C@@H]3CC[C@@H]3CNC(=O)OC(C)(C)C)cc(CO)c1)(C(C)C)C(C#N)=C(N)O2 (some centres unmarked) [KDG-0490]
< 0.1 | ≥ 20 | ≤ 70 | B″ | – | Cc1n[nH]c2c1C(c1cc(C#CC34CC(NC(=O)OC(C)(C)C)(C3)C4)cc(CO)c1)(C(C)C)C(C#N)=C(N)O2 (centres unmarked) [KDG-0502, tert-butyl N-[3-[2-(3-[6-amino-5-cyano-4-isopropyl-3-methyl-1H-pyrano[2,3-c]pyrazol-4-yl]-5-(hydroxymethyl)phenyl)ethynyl]bicyclo[1.1.1]pentan-1-yl]carbamate]
– | < 5 | – | A″ | – | Cc1n[nH]c2c1C(c1cc(C#C[C@H]3CC[C@@H](NC(=O)OC(C)(C)C)C3)cc(CO)c1)(C(C)C)C(C#N)=C(N)O2 (some centres unmarked) [KDG-0505]
– | 5 to 10 | – | B″ | – | Cc1n[nH]c2c1C(c1cc(C#C[C@H]3CC[C@H](NC(=O)OC(C)(C)C)C3)cc(CO)c1)(C(C)C)C(C#N)=C(N)O2 (some centres unmarked) [KDG-0506]
– | 10 to 20 | – | B″ | – | Cc1n[nH]c2c1C(c1cc(C#N)cc(C#CC3CN(C(=O)OC(C)(C)C)C3)c1)(C(C)C)C(C#N)=C(N)O2 (centres unmarked) [KDG-0543]
